Laboratory results reported in ChEMBL document CHEMBL3596108 (Bioorg Med Chem, 2015).

Tests used:
[1] = Cmax in nude mouse at 30 mg/kg, ip administered as single dose; assay type: ADME, organism-based; parameters: dose 30 mg/kg, route intraperitoneal; details: in vivo
[2] = Tmax in nude mouse at 30 mg/kg, ip administered as single dose; assay type: ADME, organism-based; details: in vivo
[3] = AUC (0 to t) in nude mouse at 30 mg/kg, ip administered as single dose; assay type: ADME, organism-based; details: in vivo
[4] = Half life in nude mouse at 30 mg/kg, ip administered as single dose; assay type: ADME, organism-based; details: in vivo
[5] = Passive permeability of the compound by PAMPA method; assay type: physicochemical; details: read-out: permeability

Cmax [1]: 115 ng/mL | Tmax [2]: 30 min | AUC(0-t) [3]: 190 ng·h/mL | half-life [4]: 35 min | Papp [5]: 3.03 ×10⁻⁶ cm/s
SMILES: Cl.NC1CCc2c(Br)ccc(-c3ccccc3)c2CC1=O (stereo not given)
